Where two headings read alike, the source gives them in different places.
Tests used:
[1] = tested on: ADP induced human platelet aggregation; assay: ADP-induced human platelet aggregation, 96-well microplate method; type: cell-based
[2] = tested on: P2Y1; conditions: read-out: EC50 toward P2Y1; functional assay; cited from earlier work
[3] = tested on: P2Y12; conditions: read-out: EC50 toward P2Y12; functional assay; cited from earlier work
[4] = target: T1, human platelet P2Y12 receptors (Homo sapiens, UniProt Q9H244); assay: P2Y12-mediated VASP phosphorylation assay; type: cell-based
T1 sequence (Q9H244 whole entry): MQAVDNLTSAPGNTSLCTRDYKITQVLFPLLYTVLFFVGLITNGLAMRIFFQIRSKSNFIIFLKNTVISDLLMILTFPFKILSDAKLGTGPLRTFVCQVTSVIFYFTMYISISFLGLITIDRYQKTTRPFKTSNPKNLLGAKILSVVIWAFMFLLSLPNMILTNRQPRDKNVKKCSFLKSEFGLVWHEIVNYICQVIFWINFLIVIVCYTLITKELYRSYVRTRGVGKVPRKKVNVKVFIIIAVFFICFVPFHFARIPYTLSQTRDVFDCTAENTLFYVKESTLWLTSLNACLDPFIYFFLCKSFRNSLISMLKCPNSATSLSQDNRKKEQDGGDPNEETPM

[5] = target: T2, platelet P2X1 receptors (Homo sapiens, UniProt P51575); assay: P2X1-mediated entry of extracellular Ca2+; type: cell-based
T2 sequence (P51575 1-399): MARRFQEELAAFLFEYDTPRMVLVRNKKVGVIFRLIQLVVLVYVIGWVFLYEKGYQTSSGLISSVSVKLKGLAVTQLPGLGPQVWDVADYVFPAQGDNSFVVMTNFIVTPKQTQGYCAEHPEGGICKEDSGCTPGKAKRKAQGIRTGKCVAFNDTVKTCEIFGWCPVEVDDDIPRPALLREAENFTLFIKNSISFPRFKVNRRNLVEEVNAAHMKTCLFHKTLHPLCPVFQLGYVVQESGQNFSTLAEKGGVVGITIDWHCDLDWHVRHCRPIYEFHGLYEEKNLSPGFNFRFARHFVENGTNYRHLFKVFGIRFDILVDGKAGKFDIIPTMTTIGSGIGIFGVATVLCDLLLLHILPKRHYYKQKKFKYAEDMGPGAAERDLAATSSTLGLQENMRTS

[6] = target: human platelet P2Y1 receptors (Homo sapiens, UniProt P47900); conditions: read-out: P2Y1 inhibition IC50; cited from earlier work
Sequence of human platelet P2Y1 receptors (P47900 whole entry): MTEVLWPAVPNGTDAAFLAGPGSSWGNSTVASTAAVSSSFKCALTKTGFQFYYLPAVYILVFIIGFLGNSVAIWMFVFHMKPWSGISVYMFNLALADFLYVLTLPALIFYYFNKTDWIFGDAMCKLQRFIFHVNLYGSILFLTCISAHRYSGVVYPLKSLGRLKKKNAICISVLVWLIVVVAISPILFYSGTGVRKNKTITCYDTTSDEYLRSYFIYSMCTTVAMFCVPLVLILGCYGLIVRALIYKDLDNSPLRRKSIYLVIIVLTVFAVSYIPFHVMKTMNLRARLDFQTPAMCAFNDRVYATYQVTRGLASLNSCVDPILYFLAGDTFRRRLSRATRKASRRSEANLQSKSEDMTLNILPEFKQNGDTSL

[7] = target: T1, human platelet P2Y12 receptors; conditions: cited from earlier work
[8] = target: T2, platelet P2X1 receptors; conditions: cited from earlier work
[9] = read-out: IC50, nM (95% Confidence Interval), no pre-incubation, 3 μM ADP
[10] = read-out: IC50, nM (95% Confidence Interval), pre-incubation with test compound, 5 μM ADP
[11] = read-out: IC50, nM (95% Confidence Interval), pre-incubation with test compound, 20 μM ADP

| Molecule | IC50 [1, 9] [nM] | IC50 [1, 10] [nM] | IC50 [1, 11] [nM] | further results |
| --- | --- | --- | --- | --- |
| CCSc1nc(N)c2ncn([C@@H]3O[C@H](COP(=O)(S)OP(=O)(O)C(Cl)P(=O)(O)OP(=O)(S)OC[C@H]4O[C@@H](n5cnc6c(N)nc(SCC)nc65)[C@H](O)[C@@H]4O)[C@@H](O)[C@H]3O)c2n1 (mixture of isomers) [Compound 6, P^1,P^4-di-(2-ethylthio-5′-adenosine) P^1,P^4-dithio-P^2,P^3-chloromethylenetetraphosphate] | 46.1 | 8.48 | 13.4 |  |
| CSc1nc(N)c2ncn([C@@H]3O[C@H](COP(=O)(S)OP(=O)(O)OP(=O)(O)OP(=O)(S)OC[C@H]4O[C@@H](n5cnc6c(N)nc(SC)nc65)[C@H](O)[C@@H]4O)[C@@H](O)[C@H]3O)c2n1 (mixture of isomers) [Compound 3, P^1,P^4-di-(2-methylthio-5′-adenosine) P^1,P^4-dithiotetraphosphate] | 61.8 | 70.3 | 731 |  |
| 2-methylthioadenosine 5′-diphosphate [Compound 2-MeSADP] |  |  |  | EC50 [2]: 6 nM; EC50 [3]: 0.3 nM |
| CSc1nc(N)c2ncn([C@@H]3O[C@H](COP(=O)([O-])OP(=O)([O-])OP(=O)([O-])OP(=O)([O-])OC[C@H]4O[C@@H](n5cnc6c(N)nc(SC)nc65)[C@H](O)[C@@H]4O)[C@@H](O)[C@H]3O)c2n1.[Na+].[Na+].[Na+].[Na+] [Compound 2, P^1,P^4-di-(2-Methylthio-5′-adenosine) tetraphosphate] | 71.3 | 1020 | 3950 | P2Y12 antagonist character [4]: full antagonist |
| CNc1nc(SC)nc2c1ncn2[C@@H]1O[C@H](COP(=O)([S-])OP(=O)([O-])C(Cl)P(=O)([O-])OP(=O)([S-])OC[C@H]2O[C@@H](n3cnc4c(NC)nc(SC)nc43)[C@H](O)[C@@H]2O)[C@@H](O)[C@H]1O.[Na+].[Na+].[Na+].[Na+] (mixture of isomers) [Compound 15, P^1,P^4-di-(2-methylthio-N^6-methyl-5′-adenosine) P^1,P^4-dithio-P^2,P^3-chloromethylenetetraphosphate] | 616 |  |  | P2X1 agonist activity [5]: effective P2X1 agonist |
| CNc1ncnc2c1ncn2[C@@H]1O[C@H](COP(=O)(S)OP(=O)(O)C(Cl)P(=O)(O)OP(=O)(S)OC[C@H]2O[C@@H](n3cnc4c(NC)ncnc43)[C@H](O)[C@@H]2O)[C@@H](O)[C@H]1O (mixture of isomers) [Compound 13, P^1,P^4-di-(N^6-methyl-5′-adenosine) P^1,P^4-dithio-P^2,P^3-chloromethylenetetraphosphate] | 5870 | 10700 | 37200 |  |
| Nc1nc(Br)nc2c1ncn2[C@@H]1O[C@H](COP(=O)(S)OP(=O)(O)C(Cl)P(=O)(O)OP(=O)(S)OC[C@H]2O[C@@H](n3cnc4c(N)nc(Br)nc43)[C@H](O)[C@@H]2O)[C@@H](O)[C@H]1O (mixture of isomers) [Compound 11, P^1,P^4-di-(2-bromo-5′-adenosine) P^1,P^4-dithio-P^2,P^3-chloromethylenetetra-phosphate] | 87.8 | 173 | 936 |  |
| Nc1ncnc2c1ncn2[C@@H]1O[C@H](COP(=O)(O)OP(=O)(O)O)[C@@H](O)[C@H]1O [ADP, adenosine diphosphate] |  |  |  | EC50 [2]: 8000 nM; EC50 [3]: 69 nM |
| CCCCCSc1nc(N)c2ncn([C@@H]3O[C@H](COP(=O)(S)OP(=O)(O)C(Cl)P(=O)(O)OP(=O)(S)OC[C@H]4O[C@@H](n5cnc6c(N)nc(SCCCCC)nc65)[C@H](O)[C@@H]4O)[C@@H](O)[C@H]3O)c2n1 (mixture of isomers) [Compound 9, P^1,P^4-di-(2-pentylthio-5′-adenosine) P^1,P^4-dithio-P^2,P^3-chloromethylenetetraphosphate] | 1090 | 90.7 | 172 |  |
| Nc1ncnc2c1ncn2[C@@H]1O[C@H](COP(=O)(O)OP(=O)(O)OP(=O)(O)OP(=O)(O)OC[C@H]2O[C@@H](n3cnc4c(N)ncnc43)[C@H](O)[C@@H]2O)[C@@H](O)[C@H]1O [Ap4A, P^1,P^4-Di(adenosine-5′) tetraphosphate] |  |  |  | IC50 [6]: 32500 nM; P2Y12 antagonist character [7]: partial antagonist; IC50 ([7]; read-out: P2Y12 inhibition IC50): > 250000 nM; P2X1 agonist activity [8]: effective P2X1 receptor agonist |
| Nc1nc(I)nc2c1ncn2[C@@H]1O[C@H](COP(=O)(S)OP(=O)(O)C(Cl)P(=O)(O)OP(=O)(S)OC[C@H]2O[C@@H](n3cnc4c(N)nc(I)nc43)[C@H](O)[C@@H]2O)[C@@H](O)[C@H]1O (mixture of isomers) [Compound 12, P^1,P^4-di-(2-iodo-5′-adenosine) P^1,P^4-dithio-P^2,P^3-chloromethylenetetra-phosphate] | 49.9 | 48.5 | 416 |  |
| Nc1nc(Cl)nc2c1ncn2[C@@H]1O[C@H](COP(=O)(S)OP(=O)(O)C(Cl)P(=O)(O)OP(=O)(S)OC[C@H]2O[C@@H](n3cnc4c(N)nc(Cl)nc43)[C@H](O)[C@@H]2O)[C@@H](O)[C@H]1O (mixture of isomers) [Compound 10, P^1,P^4-di-(2-chloro-5′-adenosine) P^1,P^4-dithio-P^2,P^3-chloromethylenetetra-phosphate] | 140 | 369 | 2690 |  |
| CNc1ncnc2c1ncn2[C@H]1C[C@H](OP(=O)(O)O)[C@@H](COP(=O)(O)O)O1 [MRS2179, reference compound] |  |  |  | P2Y12 inhibition IC50±SEM ([4]; 3 μM ADP, VASP phosphorylation, human blood): Not inhibitor |
| CSc1nc(N)c2ncn([C@@H]3O[C@H](COP(=O)(O)OP(=O)(O)C(Cl)P(=O)(O)OP(=O)(O)OC[C@H]4O[C@@H](n5cnc6c(N)nc(SC)nc65)[C@H](O)[C@@H]4O)[C@@H](O)[C@H]3O)c2n1 (some centres unmarked) [Compound 4, P^1,P^4-di-(2-methylthio-5′-adenosine) P^2,P^3-chloromethylenetetraphosphate] | 33.1 | 8.89 | 32.6 |  |
| CSc1nc(N)c2ncn([C@@H]3O[C@H](COP(=O)(S)OP(=O)(O)C(Cl)(Cl)P(=O)(O)OP(=O)(S)OC[C@H]4O[C@@H](n5cnc6c(N)nc(SC)nc65)[C@H](O)[C@@H]4O)[C@@H](O)[C@H]3O)c2n1 (mixture of isomers) [Compound 16, P^1,P^4-di-(2-methylthio-5′-adenosine) P^1,P^4-dithio-P^2,P^3-dichloromethylenetetraphosphate] | 295 |  |  |  |
| CCCSc1nc(N)c2ncn([C@@H]3O[C@H](COP(=O)(S)OP(=O)(O)C(Cl)P(=O)(O)OP(=O)(S)OC[C@H]4O[C@@H](n5cnc6c(N)nc(SCCC)nc65)[C@H](O)[C@@H]4O)[C@@H](O)[C@H]3O)c2n1 (mixture of isomers) [Compound 7, P^1,P^4-di-(2-propylthio-5′-adenosine) P^1,P^4-dithio-P^2,P^3-chloromethylenetetraphosphate] | 113 | 23.4 | 44.6 |  |
| Nc1nc(SCCC(F)(F)F)nc2c1ncn2[C@@H]1O[C@H](COP(=O)(S)OP(=O)(O)C(Cl)P(=O)(O)OP(=O)(S)OC[C@H]2O[C@@H](n3cnc4c(N)nc(SCCC(F)(F)F)nc43)[C@H](O)[C@@H]2O)[C@@H](O)[C@H]1O (mixture of isomers) [Compound 8, P^1,P^4-di-(2-(3,3,3-trifluoropropylthylthio)-5′-adenosine) P^1,P^4-dithio-P^2,P^3-chloromethylenetetraphosphate] | 144 | 15 | 26.6 |  |
| CCCNc1ncnc2c1ncn2[C@@H]1O[C@H](COP(=O)(S)OP(=O)(O)C(Cl)P(=O)(O)OP(=O)(S)OC[C@H]2O[C@@H](n3cnc4c(NCCC)ncnc43)[C@H](O)[C@@H]2O)[C@@H](O)[C@H]1O (mixture of isomers) [Compound 14, P^1,P^4-di-(N^6-propyl-5′-adenosine) P^1,P^4-dithio-P^2,P^3-chloromethylenetetraphosphate] | 3930 | 12000 | 22400 | activation at 1 µM ([5]; read-out: P2X1 activation %±SEM): -0.01 ± 0.91% |
| Nc1ncnc2c1ncn2[C@@H]1O[C@H](COP(=O)(S)OP(=O)(O)C(Cl)P(=O)(O)OP(=O)(S)OC[C@H]2O[C@@H](n3cnc4c(N)ncnc43)[C@H](O)[C@@H]2O)[C@@H](O)[C@H]1O (mixture of isomers) [Compound 1, reference compound] | 437 | 757 | 7680 |  |
